In patent publication US10981932B2, “Macrocyclic indole derivatives” (Bayer Aktiengesellschaft, priority 2016, dated 2021):
Structures can show the parent of a compound that is named as a salt. Where two headings read alike, the source gives them in different places.

Tests used:
MCL-1 = MCL-1 (Homo sapiens, UniProt Q07820); experiment: Protein-protein interaction assay MCL-1/Noxa BH3 peptide (MCL-1 assay), TR-FRET; format: binding; conditions: MBP-MCL-1 / Noxa BH3-derived peptide, median
In short: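 TR-FRET, 665/622 nm emission ratio (excitation 330–350 nm), measured MCL-1/Noxa complex formation. 1 nM MBP-MCL-1, 50 mM Tris/HCl pH 7, 0.1% BGG, 2 mM DTT. Incubation 1 h at 22 °C, then overnight at 4 °C. IC50 by 4-parameter regression, normalized to DMSO (0%) and no-MCL-1 (100%) controls.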

SUDHL5 [1] = experiment: Induction of caspase-3/7 activity (Caspase-Glo 3/7), SUDHL5; format: cell-based; conditions: caspase-3/7 induction, SUDHL5 cells, 3 h treatment, median
In short: (§1)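 DLBCL cells treated with compounds for 3 h at 37 °C, then caspase-3/7 activity read by Caspase-Glo 3/7 luminescence. Medium-only background subtracted; EC50 fitted with C0 fixed at 1 and top set to the reference compound's maximal induction.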

SUDHL10 [2] = experiment: Induction of caspase-3/7 activity (Caspase-Glo 3/7), SUDHL10; format: cell-based; conditions: caspase-3/7 induction, SUDHL10 cells, 3 h treatment, median
In short: as §1

SUDHL5 [3] = experiment: Anti-proliferative effect (CellTiter-Glo, 72 h), SUDHL5; format: cell-based; conditions: SUDHL5 cells, antiproliferation, median, read-out: Antiproli SUDHL5 [M] (median)
In short: (§2)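 A time zero plate, read with CellTiter-Glo shortly after seeding, served as baseline; compound-treated plates were incubated 72 h at 37 °C and then read identically by luminescence.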

SUDHL10 [4] = experiment: Anti-proliferative effect (CellTiter-Glo, 72 h), SUDHL10; format: cell-based; conditions: SUDHL10 cells, antiproliferation, median, read-out: Antiproli SUDHL10 [M] (median)
In short: as §2

OPM2 = experiment: Anti-proliferative effect (CellTiter-Glo, 72 h), OPM2; format: cell-based; conditions: OPM2 cells, median, read-out: IC50 antiproliferation assay OPM2 [M] (median)
In short: as §2

A2780 = experiment: Anti-proliferative effect (CellTiter-Glo, 72 h), A2780; format: cell-based; conditions: A2780 cells, median, read-out: IC50 antiproliferation assay A2780 [M] (median)
In short: as §2

MV-4-11 = experiment: Anti-proliferative effect (CellTiter-Glo, 72 h), MV-4-11; format: cell-based; conditions: median, read-out: IC50 antiproliferation assay MV-4-11 [M] (median)
In short: as §2

SUDHL5 [5] = experiment: Induction of cytotoxicity (CellTiter-Glo, 5 h), SUDHL5
SUDHL10 [6] = experiment: Induction of cytotoxicity (CellTiter-Glo, 5 h), SUDHL10
[7] = Homo sapiens, SU-DHL-5, 72 h, 72 h incubation
[8] = Homo sapiens, SU-DHL10, 72 h, 72 h incubation
[9] = Homo sapiens, MV4-11, 72 h, MV-4-11 cells
[10] = Homo sapiens, SU-DHL-5, 5 h, read-out: Cytotox SUDHL5 [M] (median), SUDHL5 cells, cytotoxicity induction, CellTiter-Glo, 5 h incubation, median
[11] = Homo sapiens, SU-DHL10, 5 h, read-out: Cytotox SUDHL10 [M] (median), SUDHL10 cells, cytotoxicity induction, CellTiter-Glo, 5 h incubation, median
[12] = read-out: Cytotox SUDHL5 [M] (median), SUDHL5 cells, cytotoxicity induction, CellTiter-Glo, 5 h incubation, median
[13] = read-out: Cytotox SUDHL10 [M] (median), SUDHL10 cells, cytotoxicity induction, CellTiter-Glo, 5 h incubation, median
[14] = read-out: Cytotox SUDHL5 [M] (median), SUDHL5 cells, cytotoxicity induction, CellTiter-Glo, 5 h, median
[15] = read-out: Cytotox SUDHL10 [M] (median), SUDHL10 cells, cytotoxicity induction, CellTiter-Glo, 5 h, median

MCL-1, sequence (Q07820 whole entry): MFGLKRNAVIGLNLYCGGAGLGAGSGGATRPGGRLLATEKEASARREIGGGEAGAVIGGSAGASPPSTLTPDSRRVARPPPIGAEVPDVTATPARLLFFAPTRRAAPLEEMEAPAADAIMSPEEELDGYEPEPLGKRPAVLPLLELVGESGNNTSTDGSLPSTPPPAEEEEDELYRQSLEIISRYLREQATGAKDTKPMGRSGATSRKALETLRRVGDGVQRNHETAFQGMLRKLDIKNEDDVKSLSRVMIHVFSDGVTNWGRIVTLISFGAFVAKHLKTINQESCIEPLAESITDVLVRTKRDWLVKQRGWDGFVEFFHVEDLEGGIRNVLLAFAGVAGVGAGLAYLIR

Structure (SMILES)	IC50 (MCL-1)	EC50 (SUDHL5 [1]; Homo sapiens, SU-DHL-5, 3 h)	EC50 (SUDHL10 [2]; Homo sapiens, SU-DHL10, 3 h)	IC50 (SUDHL5 [3]; [7])	IC50 (SUDHL10 [4]; [8])	IC50 (A2780; Homo sapiens, A2780, 72 h)	IC50 (MV-4-11; [9])	EC50 (SUDHL5 [1])	EC50 (SUDHL10 [2])	IC50 (A2780)	IC50 (SUDHL5 [3]; 72 h)	IC50 (SUDHL10 [4]; 72 h)	IC50 (OPM2; Homo sapiens, OPM-2, 72 h)	IC50 (SUDHL5 [5]; [10])	IC50 (SUDHL10 [6]; [11])	IC50 (OPM2)	IC50 (SUDHL5 [5]; [12])	IC50 (SUDHL5 [5]; [14])	IC50 (SUDHL10 [6]; [15])	also measured
Cc1ccc2c(CCCOc3cccc4ccccc34)c(C(=O)O)n3c2c1-c1c(C)nn(C)c1COCCCC3 (racemic) [Example 027, (rac)-1,3,4-trimethyl-7-[3-(naphthalen-1-yloxy)propyl]-1,10,11,12,13,15-hexahydropyrazolo[4′,3′:9,10][1,6]oxazacycloundecino[8,7,6-hi]indole-8-carboxylic Acid]	0.00527 µM	6.7 µM	20.4 µM	9.27e-06 M	7.34e-06 M	2.54e-05 M	2.98e-05 M						> 3.3e-05 M	8.54e-06 M	2.59e-05 M					
CCc1c2c(nn1C)COCCCCn1c(C(=O)O)c(CCCOc3cccc4ccccc34)c3cccc-2c31 (racemic) [Example 147, (rac)-3-Ethyl-2-methyl-7-[3-(1-naphthyloxy)propyl]-2,10,11,12,13,15-hexahydropyrazolo[4′,3′:9,10][1,6]oxazacycloundecino[8,7,6-hi]indole-8-carboxylic Acid]	0.00377 µM	2.26 µM	7.48 µM	3.06e-06 M	3.93e-06 M	2.44e-05 M	1.37e-05 M						1.05e-05 M	2.8e-06 M	9.53e-06 M					
Cc1nn(C)c2c1-c1cccc3c(CCCOc4cccc5ccccc45)c(C(=O)O)n(c13)CCCCOC2 (single isomer, unassigned; enantiomer 2) [Example 318, (−)-1,3-dimethyl-7-[3-(naphthalen-1-yloxy)propyl]-1,10,11,12,13,15-hexahydropyrazolo[4′,3′:9,10][1,6]oxazacycloundecino[8,7,6-hi]indole-8-carboxylic Acid (Enantiomer 2)]	0.0131 µM							26.4 µM	> 33 µM	> 3.3e-05 M	1.84e-05 M	2.72e-05 M						1.62e-05 M	> 3.3e-05 M	IC50 (MV-4-11; MV-4-11 cells): 3.28e-05 M
Cn1nc(CN2CCCCC2)c2c1COCCCCn1c(C(=O)O)c(CCCOc3cccc4ccccc34)c3cccc-2c31 (single isomer, unassigned; enantiomer 2) [Example 334, 1-methyl-7-[3-(naphthalen-1-yloxy)propyl]-3-(piperidin-1-ylmethyl)-1,10,11,12,13,15-hexahydropyrazolo[4′3′:9,10][1,6]oxazacycloundecino[8,7,6-hi]indole-8-carboxylic Acid (Enantiomer 2)]	0.0917 µM						1.47e-05 M	16.9 µM	25.7 µM	2.87e-05 M	1.68e-05 M	1.54e-05 M						1.85e-05 M	2.67e-05 M	
Cn1nc(CN2CC3(COC3)C2)c2c1COCCCCn1c(C(=O)O)c(CCCOc3cccc4ccccc34)c3cccc-2c31 (single isomer, unassigned; enantiomer 2) [Example 345, 1-methyl-7-[3-(naphthalen-1-yloxy)propyl]-3-(2-oxa-6-azaspiro[3.3]hept-6-ylmethyl)-1,10,11,12,13,15-hexahydropyrazolo[4′,3′:9,10][1,6]oxazacycloundecino[8,7,6-hi]indole-8-carboxylic acid-N-ethylethanamine Salt (Enantiomer 2)]	0.026 µM							7.02 µM	12.8 µM	1.59e-05 M	7.32e-06 M	5.68e-06 M						8.32e-06 M	1.32e-05 M	IC50 (MV-4-11; Homo sapiens, MV4-11, MV-4-11 cells): 7.47e-06 M

Second part, led by results:

IC50 (MCL-1)	EC50 (SUDHL5 [1]; Homo sapiens, SU-DHL-5, 3 h)	EC50 (SUDHL10 [2]; Homo sapiens, SU-DHL10, 3 h)	IC50 (SUDHL5 [3]; [7])	IC50 (SUDHL10 [4]; [8])	IC50 (A2780; Homo sapiens, A2780, 72 h)	IC50 (MV-4-11; [9])	EC50 (SUDHL5 [1])	EC50 (SUDHL10 [2])	IC50 (A2780)	IC50 (SUDHL5 [3]; 72 h)	IC50 (SUDHL10 [4]; 72 h)	Structure (SMILES)	IC50 (OPM2; Homo sapiens, OPM-2, 72 h)	IC50 (SUDHL5 [5]; [10])	IC50 (SUDHL10 [6]; [11])	IC50 (OPM2)	IC50 (SUDHL5 [5]; [12])	IC50 (SUDHL5 [5]; [14])	IC50 (SUDHL10 [6]; [15])	also measured
0.00187 µM	0.579 µM	0.953 µM	9.83e-07 M	1.44e-06 M	6.31e-06 M	3.57e-06 M						Cn1nc(COc2ccc(N3CCN(S(C)(=O)=O)CC3)cc2)c2c1COCCCCn1c(C(=O)O)c(CCCOc3cccc4ccccc34)c3cccc-2c31 (racemic) [Example 1-8, (rac)-1-methyl-3-({4-[4-(methylsulfonyl)piperazin-1-yl]phenoxy}methyl)-7-[3-(naphthalen-1-yloxy)propyl]-1,10,11,12,13,15-hexahydropyrazolo[4′,3′:9,10][1,6]oxazacycloundecino[8,7,6-hi]indole-8-carboxylic Acid]	1.24e-06 M	8.33e-07 M	1.07e-06 M					
0.00175 µM	0.405 µM	0.652 µM	7.61e-07 M	9.28e-07 M	4.31e-06 M	2.44e-06 M						Cn1nc(COc2ccc(N3CCN(S(=O)(=O)C4CC4)CC3)cc2)c2c1COCCCCn1c(C(=O)O)c(CCCOc3cccc4ccccc34)c3cccc-2c31 (racemic) [Example 1-11, (rac)-3-({4-[4-(cyclopropylsulfonyl)piperazin-1-yl]phenoxy}methyl)-1-methyl-7-[3-(naphthalen-1-yloxy)propyl]-110,11,12,13,15-hexahydropyrazolo[4′,3′:9,10][1,6]oxazacycloundecino[8,7,6-hi]indole-8-carboxylic Acid]	1.51e-06 M	8.89e-07 M	1.03e-06 M					
0.0542 µM				9.58e-06 M	2.31e-05 M	1.21e-05 M	20.4 µM	18.8 µM				CN1CCCn2c(C(=O)O)c(CCCOc3cccc4ccccc34)c3cccc(c32)-c2c(COc3ccc(S(C)(=O)=O)cc3)nn(C)c2C1 (single isomer, unassigned) [Example 1-49, (−)-7,9-dimethyl-11-{[4-(methylsulfonyl)phenoxy]methyl}-1-[3-(naphthalen-1-yloxy)propyl]-4,5,6,7,8,9-hexahydropyrazolo[3′,4′:7,8][1,5]diazecino[9,10,1-hi]indole-2-carboxylic Acid]			2.5e-05 M	> 3.3e-05 M	3.3e-05 M			IC50 (SUDHL5 [3]; 72 h incubation): 1.22e-05 M
0.0167 µM							6.14 µM	6.71 µM	1.83e-05 M			CN1CCCn2c(C(=O)O)c(CCCOc3cccc4ccccc34)c3cccc(c32)-c2c(COc3ccc(S(C)(=O)=O)cc3)nn(C)c2C1 (single isomer, unassigned) [Example 1-50]				1.21e-05 M	5.74e-06 M			IC50 (SUDHL5 [3]; 72 h incubation): 5.52e-06 M; IC50 (SUDHL10 [4]; 72 h incubation): 9.59e-06 M; IC50 (MV-4-11; MV-4-11 cells): 1.05e-05 M; IC50 (SUDHL10 [6]; [13]): 1.26e-05 M
0.00119 µM			3.26e-06 M			2.58e-06 M	2.64 µM	5.26 µM	2.38e-05 M			COCC(=O)N1CCN(c2ccc(OCc3nn(C)c4c3-c3cccc5c(CCCOc6cccc7ccccc67)c(C(=O)O)n(c35)CCCCOC4)cc2)CC1 (single isomer, unassigned; enantiomer 2) [Example 1-29, 3-({4-[4-(methoxyacetyl)piperazin-1-yl]phenoxy}methyl)-1-methyl-7-[3-(naphthalen-1-yloxy)propyl]-1,10,11,12,13,15-hexahydropyrazolo[4′,3′:9,10][1,6]oxazacycloundecino[8,7,6-hi]indole-8-carboxylic Acid (Enantiomer 2)]				4.53e-06 M	3.29e-06 M			IC50 (SUDHL10 [6]; [13]): 6.87e-06 M
